The target of assay [1] is T1, beta-catenin/TCF4 engagement (Homo sapiens, UniProt P35222).
T1 construct: expressed in transfected cells; host or cells: HEK293
T1 sequence (P35222 1-781): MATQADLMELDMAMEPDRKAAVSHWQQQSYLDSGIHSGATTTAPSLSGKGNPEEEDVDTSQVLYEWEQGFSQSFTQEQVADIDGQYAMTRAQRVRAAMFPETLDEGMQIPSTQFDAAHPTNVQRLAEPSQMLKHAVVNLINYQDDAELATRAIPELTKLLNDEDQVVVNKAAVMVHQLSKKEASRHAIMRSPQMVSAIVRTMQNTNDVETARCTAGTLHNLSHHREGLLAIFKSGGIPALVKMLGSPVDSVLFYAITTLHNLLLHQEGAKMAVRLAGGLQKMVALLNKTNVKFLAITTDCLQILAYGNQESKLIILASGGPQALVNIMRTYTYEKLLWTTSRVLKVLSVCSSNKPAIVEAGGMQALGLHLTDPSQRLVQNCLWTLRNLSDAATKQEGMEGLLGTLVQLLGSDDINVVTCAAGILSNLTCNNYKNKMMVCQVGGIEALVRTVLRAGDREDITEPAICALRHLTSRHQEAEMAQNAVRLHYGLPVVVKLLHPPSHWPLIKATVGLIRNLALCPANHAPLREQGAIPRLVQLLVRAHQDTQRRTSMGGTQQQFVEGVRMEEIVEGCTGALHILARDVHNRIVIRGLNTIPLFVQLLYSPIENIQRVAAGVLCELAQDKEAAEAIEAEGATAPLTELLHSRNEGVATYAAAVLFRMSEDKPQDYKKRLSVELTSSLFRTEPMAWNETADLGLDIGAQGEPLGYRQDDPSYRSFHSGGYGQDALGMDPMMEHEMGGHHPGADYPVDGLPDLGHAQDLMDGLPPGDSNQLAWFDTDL
Nature of the assay: Nano-BRET target engagement assay (B-cat-Halo & TCF4-Luc in HEK293 cells). The note with it: absolute IC50; read-out: NanoBRET Abs IC50. It is filed as cell-based. For orientation: BRET reads energy transfer from a luciferase to a nearby fluorophore.

For assay [2], the target named is T2, full-length beta-Catenin (Uniprot ID P35222) (Homo sapiens, UniProt P35222).
T2 construct: 10 nM full-length beta-Catenin (Uniprot ID P35222)
T2 sequence (P35222 1-781): T1 sequence (P35222 1-781)
Nature of the assay: Fluorescence polarization IC50 (beta-catenin / 5FAM-TCF4 10-53 competition). Format: binding. The note with it: fluorescence polarization; read-out: beta-Catenin FP IC50.

Broadly, the IC50 is the concentration at which inhibition is half-maximal. For the compound `CC(=O)N1CCC[C@]12CC=CCCCC1(CCCC=CCCCOC(=O)N3CC[C@@](C(=O)N[C@@H](Cc4ccsc4)C(=O)N[C@@H](Cc4csc5ccccc45)C(=O)N[C@H](C(N)=O)C(C)C)(C3)NC(=O)[C@H]([C@@H](C)O)NC(=O)[C@H](Cc3ccccc3)NC(=O)[C@H](C)NC(=O)[C@H](CCCCNC(C)C)NC(=O)[C@H](CN(CC(=O)O)CC(F)(F)F)NC(=O)[C@H](CC(=O)O)NC1=O)NC(=O)[C@H](CC(C)(C)C)NC(=O)[C@H](CC(=O)O)NC2=O` (stereo partly drawn) [I-1764, Ac-PL3-Asp-Npg-B5-Asp-TfeGA-iPrLys-Ala-Phe-Thr-PyrS2-3Thi-BztA-Val-NH2], the figures for the IC50 in assay [1] and in assay [2] were more than 20000 nM and 23 nM, respectively.
As to `CC(=O)N1CCC[C@]12CCCCCCC1(CCCCCCCCOC(=O)N3CC[C@@](C(=O)N[C@@H](Cc4ccsc4)C(=O)N[C@@H](Cc4csc5ccccc45)C(=O)N[C@@H](Cc4ccccc4)C(N)=O)(C3)NC(=O)[C@H]([C@@H](C)O)NC(=O)[C@H](Cc3ccccc3)NC(=O)[C@H](C)NC(=O)[C@H](CCCCNC(C)C)NC(=O)[C@H](CN(CC(=O)O)CC(F)(F)F)NC(=O)[C@H](CC(=O)O)NC1=O)NC(=O)[C@H](CC(C)(C)C)NC(=O)[C@H](CC(=O)O)NC2=O` (stereo partly drawn) [I-1768, Ac-PL3-Asp-Npg-B5-Asp-TfeGA-iPrLys-Ala-Phe-Thr-PyrS2-3Thi-BztA-Phe-NH2], the concentration for half-maximal inhibition (IC50) is more than 20000 nM in assay [1] and 69 nM in assay [2].
With `CC(=O)N1CCC[C@]12CCCCCCC1(CCCCCCCCOC(=O)N3CC[C@@](C(=O)N[C@@H](Cc4ccsc4)C(=O)N[C@@H](Cc4csc5ccccc45)C(=O)N[C@H](C(N)=O)C(C)C)(C3)NC(=O)[C@H]([C@@H](C)O)NC(=O)[C@H](Cc3ccccc3)NC(=O)[C@H](C)NC(=O)[C@H](CCCCNC(C)C)NC(=O)[C@H](CN(CC(=O)O)CC(F)(F)F)NC(=O)[C@H](CC(=O)O)NC1=O)NC(=O)[C@H](CC(C)(C)C)NC(=O)[C@H](CC(=O)O)NC2=O` (stereo partly drawn) [I-1770, Ac-PL3-Asp-Npg-B5-Asp-TfeGA-iPrLys-Ala-Phe-Thr-PyrS2-3Thi-BztA-Val-NH2], the IC50 in assay [1] was more than 20000 nM; in assay [2] it was 175 nM.
For the compound `CC(=O)N1CCC[C@]12CC=CCCCC1(CCCC=CCCCOC(=O)N3CC[C@@](C(=O)N[C@@H](Cc4ccsc4)C(=O)N[C@@H](Cc4csc5ccccc45)C(=O)N[C@@H](CCC(N)=O)C(N)=O)(C3)NC(=O)[C@H](CC(C)C)NC(=O)[C@H](Cc3ccccc3)NC(=O)[C@H](C)NC(=O)[C@H](C)NC(=O)[C@H](CN(CC(=O)O)CC(F)(F)F)NC(=O)[C@H](CC(=O)O)NC1=O)NC(=O)[C@H](CCC(C)(C)C)NC(=O)[C@H](CC(=O)O)NC2=O` (stereo partly drawn) [I-1772, Ac-PL3-Asp-Npa-B5-Asp-TfeGA-Ala-Ala-Phe-Leu-PyrS2-3Thi-BztA-Gln-NH2], the IC50 in assay [1] is 6800 nM; in assay [2], 14 nM.
`CC(=O)N1CCC[C@]12CC=CCCCC1(CCCC=CCCCOC(=O)N3CC[C@@](C(=O)N[C@@H](Cc4ccsc4)C(=O)N[C@@H](Cc4csc5ccccc45)C(=O)N[C@@H](CCC(N)=O)C(N)=O)(C3)NC(=O)[C@H](CC(C)(C)C)NC(=O)[C@H](Cc3ccccc3)NC(=O)[C@H](C)NC(=O)[C@H](C)NC(=O)[C@H](CN(CC(=O)O)CC(F)(F)F)NC(=O)[C@H](CC(=O)O)NC1=O)NC(=O)[C@H](CC(C)(C)C)NC(=O)[C@H](CC(=O)O)NC2=O` (stereo partly drawn) [I-1773, Ac-PL3-Asp-Npg-B5-Asp-TfeGA-Ala-Ala-Phe-Npg-PyrS2-3Thi-BztA-Gln-NH2]: the IC50 in assay [1] was 8600 nM; in assay [2], 32 nM.
Consider `CC(=O)N1CCC[C@]12CC=CCCCC1(CCCC=CCCCOC(=O)N3CC[C@@](C(=O)N[C@@H](Cc4ccsc4)C(=O)N[C@@H](Cc4csc5ccccc45)C(=O)N[C@@H](CCC(N)=O)C(N)=O)(C3)NC(=O)[C@H](CC3CCCCC3)NC(=O)[C@H](Cc3ccccc3)NC(=O)[C@H](C)NC(=O)[C@H](C)NC(=O)[C@H](CN(CC(=O)O)CC(F)(F)F)NC(=O)[C@H](CC(=O)O)NC1=O)NC(=O)[C@H](CC(C)(C)C)NC(=O)[C@H](CC(=O)O)NC2=O` (stereo partly drawn) [I-1774, Ac-PL3-Asp-Npg-B5-Asp-TfeGA-Ala-Ala-Phe-Cha-PyrS2-3Thi-BztA-Gln-NH2], for which the results for the IC50 in assay [1] and in assay [2] were 8900 nM and 28 nM, respectively.
On to `CCCC[C@@H]1NC(=O)[C@H](Cc2ccccc2)NC(=O)[C@H](C)NC(=O)[C@H](C)NC(=O)[C@H](CN(CC(=O)O)CC(F)(F)F)NC(=O)[C@H](CC(=O)O)NC(=O)C2(CCCC=CCCCOC(=O)N3CC[C@@](C(=O)N[C@@H](Cc4ccsc4)C(=O)N[C@@H](Cc4csc5ccccc45)C(=O)N[C@@H](CCC(N)=O)C(N)=O)(C3)NC1=O)CCCC=CC[C@]1(CCCN1C(C)=O)C(=O)N[C@@H](CC(=O)O)C(=O)N[C@@H](CC(C)(C)C)C(=O)N2` (stereo partly drawn) [I-1776, Ac-PL3-Asp-Npg-B5-Asp-TfeGA-Ala-Ala-Phe-nLeu-PyrS2-3Thi-BztA-Gln-NH2], for which the figures for the half-maximal inhibitory concentration (IC50) in assay [1] and in assay [2] were 10500 nM and 17 nM, respectively.
On to `CCCC[C@@H]1NC(=O)[C@H](CC(=O)O)NC(=O)[C@]2(CC=CCCCC3(CCCC=CCCCOC(=O)N4CC[C@@](C(=O)N[C@@H](Cc5ccsc5)C(=O)N[C@@H](Cc5csc6ccccc56)C(=O)N[C@@H](CCC(N)=O)C(N)=O)(C4)NC(=O)[C@H](CC(C)C)NC(=O)[C@H](Cc4ccccc4)NC(=O)[C@H](C)NC(=O)[C@H](C)NC(=O)[C@H](CN(CC(=O)O)CC(F)(F)F)NC(=O)[C@H](CC(=O)O)NC3=O)NC1=O)CCCN2C(C)=O` (stereo partly drawn) [I-1777, Ac-PL3-Asp-nLeu-B5-Asp-TfeGA-Ala-Ala-Phe-Leu-PyrS2-3Thi-BztA-Gln-NH2], for which the IC50 in assay [1] stood at 8700 nM; in assay [2], 8 nM.
Turning to `CC(=O)N1CCC[C@]12CC=CCCCC1(CCCC=CCCCOC(=O)N3CC[C@@](C(=O)N[C@@H](Cc4ccsc4)C(=O)N[C@@H](Cc4csc5ccccc45)C(=O)N[C@@H](CCC(N)=O)C(N)=O)(C3)NC(=O)[C@H](CCO)NC(=O)[C@H](Cc3ccccc3)NC(=O)[C@H](C)NC(=O)[C@H](C)NC(=O)[C@H](Cc3ccc(O)cc3)NC(=O)[C@H](CC(=O)O)NC1=O)NC(=O)[C@H](CC(C)(C)C)NC(=O)[C@H](CC(=O)O)NC2=O` (stereo partly drawn) [I-1783, Ac-PL3-Asp-Npg-B5-Asp-Tyr-Ala-Ala-Phe-Hse-PyrS2-3Thi-BztA-Gln-NH2], the half-inhibitory concentration (IC50) is more than 20000 nM in assay [1] and 101 nM in assay [2].
Regarding `CC(=O)N1CCC[C@]12CC=CCCCC1(CCCC=CCCCOC(=O)N3CC[C@@](C(=O)N[C@@H](Cc4ccsc4)C(=O)N[C@@H](Cc4csc5ccccc45)C(=O)N[C@@H](CCC(N)=O)C(N)=O)(C3)NC(=O)[C@H](CCO)NC(=O)[C@H](Cc3ccccc3)NC(=O)[C@H](C)NC(=O)[C@H](C)NC(=O)[C@H](CCc3ccc(O)cc3)NC(=O)[C@H](CC(=O)O)NC1=O)NC(=O)[C@H](CC(C)(C)C)NC(=O)[C@H](CC(=O)O)NC2=O` (stereo partly drawn) [I-1786, Ac-PL3-Asp-Npg-B5-Asp-hTyr-Ala-Ala-Phe-Hse-PyrS2-3Thi-BztA-Gln-NH2], the values for the IC50 in assay [1] and in assay [2] were more than 20000 nM and 42 nM, respectively.
With `CC(=O)N1CCC[C@]12CC=CCCCC1(CCCC=CCCCOC(=O)N3CC[C@@](C(=O)N[C@@H](Cc4ccsc4)C(=O)N[C@@H](Cc4csc5ccccc45)C(=O)N[C@@H](CCC(N)=O)C(N)=O)(C3)NC(=O)[C@H](CC(N)=O)NC(=O)[C@H](Cc3ccccc3)NC(=O)[C@H](C)NC(=O)[C@H](C)NC(=O)[C@H](Cc3c[nH]c4ccccc34)NC(=O)[C@H](CC(=O)O)NC1=O)NC(=O)[C@H](CC(C)(C)C)NC(=O)[C@H](CC(=O)O)NC2=O` (stereo partly drawn) [I-1788, Ac-PL3-Asp-Npg-B5-Asp-Trp-Ala-Ala-Phe-Asn-PyrS2-3Thi-BztA-Gln-NH2], the values for the half-inhibitory concentration (IC50) in assay [1] and in assay [2] were 33900 nM and 58 nM, respectively.
Regarding `CC(=O)N1CCC[C@]12CC=CCCCC1(CCCC=CCCCOC(=O)N3CC[C@@](C(=O)N[C@@H](Cc4ccsc4)C(=O)N[C@@H](Cc4csc5ccccc45)C(=O)N[C@@H](CCC(N)=O)C(N)=O)(C3)NC(=O)[C@H](CC(N)=O)NC(=O)[C@H](Cc3ccccc3)NC(=O)[C@H](C)NC(=O)[C@H](C)NC(=O)[C@H](Cc3c(F)c(F)c(F)c(F)c3F)NC(=O)[C@H](CC(=O)O)NC1=O)NC(=O)[C@H](CC(C)(C)C)NC(=O)[C@H](CC(=O)O)NC2=O` (stereo partly drawn) [I-1790, Ac-PL3-Asp-Npg-B5-Asp-Pff-Ala-Ala-Phe-Asn-PyrS2-3Thi-BztA-Gln-NH2], the values for the half-inhibitory concentration (IC50) in assay [1] and in assay [2] were 34400 nM and 82 nM, respectively.
With `CC(=O)N1CCC[C@]12CC=CCCCC1(CCCC=CCCCOC(=O)N3CC[C@@](C(=O)N[C@@H](Cc4ccsc4)C(=O)N[C@@H](Cc4csc5ccccc45)C(=O)N[C@@H](CCC(N)=O)C(N)=O)(C3)NC(=O)[C@H](CCO)NC(=O)[C@H](Cc3ccccc3)NC(=O)[C@H](C)NC(=O)[C@H](C)NC(=O)[C@H](Cc3c(F)c(F)c(F)c(F)c3F)NC(=O)[C@H](CC(=O)O)NC1=O)NC(=O)[C@H](CC(C)(C)C)NC(=O)[C@H](CC(=O)O)NC2=O` (stereo partly drawn) [I-1791, Ac-PL3-Asp-Npg-B5-Asp-Pff-Ala-Ala-Phe-Hse-PyrS2-3Thi-BztA-Gln-NH2], the half-inhibitory concentration (IC50) is more than 20000 nM in assay [1] and 182 nM in assay [2].

The record behind these values is patent publication US20240116985A1, “STAPLED PEPTIDES AND METHODS THEREOF” (priority 2020, published 2024).
